# Source: patent US12110503B2, “Method for differentiation of ocular cells and use thereof” (FUJIFILM Cellular Dynamics, Inc., priority 2018, dated 2024)
# Test system: anterior neuroectoderm cells
# Assay: Retinal differentiation with removal of the BMP inhibitor (RD1 then RD2)
# Assay type: cell-based, human
# Conditions: RD1 with LDN193189 about 2 days, then RD2 without
# Description: In some aspects, the cells may be first differentiated in the presence of a BMP inhibitor, such as LDN1913189, for a period of time before differentiation in the absence of a BMP inhibitor. First, the anterior neuroectoderm cells are cultured in RD1 comprising a BMP pathway inhibitor, such as LDN193189, for about 1-3 days, such as 2 days. […] The second step may be for about 5-10 days, such as about 7 days, to continue differentiating the anterior neuroectoderm cells. […] VSX2 is the earliest specific marker of neural RPC within the optic vesicle and cup (Rowan, et al., 2004). VSX2^+ retinal progenitors can give rise to all cell types of the neural retina: cones, rods, ganglion cells, amacrine cells, bipolar cells, horizontal cells and Muller glia.
# The cells were then cultured in Retinal Differentiation Medium 1 (RD1) for about one to four days, particularly about two days. Briefly, the RD1 (Table 1) comprised DMEM and F12 at about a 1:1 ratio, knockout serum replacement, MEM NEAA, sodium pyruvate, N-2 supplement, B-27 supplement, and ascorbic acid. In addition, the RD1 comprised a WNT pathway inhibitor (e.g., CKI-7), a BMP pathway inhibitor (e.g., LDN193189), a TGFβ pathway inhibitor (e.g., SB431542), and a MEK inhibitor (e.g., PD325901), and IGF-1. […]
smiles,measurement,value
"Cl.c1ccc2c(-c3cnn4cc(-c5ccc(N6CCNCC6)cc5)cnc34)ccnc2c1 [LDN193189, 4-(6-(4-(piperazin-1-yl)phenyl)pyrazolo[1,5-a]pyrimidin-3-yl)quinoline hydrochloride]",VSX2 expression after removal of the BMP inhibitor,increase expression of VSX2
